The text below walks through data of patent US20250064773A1, “TARGETING ERO1 ALPHA WITH AURONE DERIVATIVES” (West Virginia University Board of Governors on behalf of …, priority 2021, published 2025).

Experiment [1] concerns HCC4006. Description: MTT viability assay, HCC4006. The experiment is classed as cell-based. Particulars: Homo sapiens, NSCLC (adenocarcinoma), read-out: IC50 Avg ± s.d. (n = 3), HCC4006. The source says: (§1) Cell Lines: PC-9 cell line used was obtained from Sigma Aldrich and grown in RPMI 1640 medium with 10% fetal bovine serum and 1% penicillin/streptomycin. HCC4006, U266, MM1.s, and Beas-2B cell lines were obtained from ATCC and cultured in either RPMI 1640 or DMEM with 10% fetal bovine serum and 1% penicillin/streptomycin. All cell lines were also checked for mycoplasma every six months and subjected to short tandem repeat (STR) analysis for cell line validation. CRISPR Cas9: CRISPR Guide RNA 2 targeting ERO1α and CRISPR Guide RNA 4 were purchased from Genscript in the pLentiCRISPR V2 plasmid containing puromycin/ampicillin selection marker. Lentivirus was made from HEK 293T cells by co-transfection with GuideRNA of interest, pVSVG, and pPAX2 plasmids. […] Plate was then read on the BioTek Cytation 5 at 530/590 nm. […] Plate was then read at 570 nm. Treated wells were all compared to DMSO control wells to calculate percent growth inhibition and the IC50 was calculated using GraphPad (log(inhibitor) vs growth inhibition). […] Images were then quantified using ImageJ. […] Cells were aliquoted at 1 million cells per PCR tube in PBS and heated in Bio-Rad T100 thermal cycler at indicated temperatures (RT, 46° C., 48° C., 50° C., 52° C., 54° C., 56°, 58° C., and 60° C.) for 3 minutes and aggregation temperature was determined by western blot analysis. […]

The subject of experiment [2] is normal lung epithelial cell line Beas-2B. The experiment is described as follows: MTT viability assay, Beas-2B. The experiment is classed as cell-based. Particulars: Homo sapiens, Normal Lung Epithelium.
Source text: as §1

With `CN(C)c1ccc(/C=C2\Oc3cc(O)ccc3C2=O)cc1` [Compound T151742], the IC50 was 18.5 ± 14.7 µM in experiment [1] and greater than 100 µM in experiment [2].
